Results reported in ChEMBL document CHEMBL1150914, “New pyrrole alkaloids from Solanum sodomaeum” (J Nat Prod, 1998).
Converted amounts (≈) assume the structure as drawn. The source made the active and inactive calls. The rule behind the calls is not given here.

Assays:
Plasmodium falciparum [1] = assay: Antimalarial activity against Plasmodium falciparum D6; type: functional, organism-based
[2] = test system: Mycobacterium intracellulare; assay: Antibacterial activity against Mycobacterium intracellular; type: functional
Cryptococcus neoformans = assay: Antifungal activity against Cryptococcus neoformans; type: functional, organism-based
Vero = assay: Cytotoxicity against african green monkey Vero cells; type: cell-based; conditions: chlorocebus sabaeus
Candida albicans = assay: Antifungal activity against Candida albicans; type: functional, organism-based
Plasmodium falciparum [3] = assay: Antimalarial activity against Plasmodium falciparum W2; type: functional, organism-based

Row | Compound | Activity (Plasmodium falciparum [1]) | MIC [2] | Activity (Cryptococcus neoformans) | Activity (Vero) | Activity (Candida albicans) | Activity (Plasmodium falciparum [3])
1 | O=CN(CCc1cnc[nH]1)c1cc[nH]c1 [SOLSODOMINE A] | inactive | 10 µg/mL (≈ 49 µM) | inactive | Not Active | inactive | inactive
2 | CNCCCN(C=O)c1cc[nH]c1 [SOLSODOMINE B] | inactive |  | inactive | Not Active | inactive | inactive
